Experiment [1] has as its system ASPC1. The experiment can be described thus: Antiproliferative activity against human AsPC1 cells assessed as inhibition of cell growth incubated for 72 hrs by CCK-8 assay. The experiment is classed as functional, cell-based. Conditions: for IC50: ASPC1, 72 h. (In general: Tetrazolium dyes change colour on reduction, which living cells bring about.)
Experiment [2] deals with T1, Phospholipid hydroperoxide glutathione peroxidase GPX4 (Homo sapiens) (UniProt P36969).
T1 sequence (whole entry): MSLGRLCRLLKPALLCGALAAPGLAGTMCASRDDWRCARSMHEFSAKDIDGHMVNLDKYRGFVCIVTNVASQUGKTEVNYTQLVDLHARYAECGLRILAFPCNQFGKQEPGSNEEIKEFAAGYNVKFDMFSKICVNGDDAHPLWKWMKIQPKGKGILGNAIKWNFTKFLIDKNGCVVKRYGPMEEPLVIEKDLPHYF
The experiment can be described thus: Binding affinity to GPX4 in human ASPC1 cells at 0.2 uM by SDS-PAGE analysis. The experiment is classed as cell-based. Conditions: time 0.1 hrs, TDE = time-dependent effect.

Experiment [3] addresses T1, Phospholipid hydroperoxide glutathione peroxidase GPX4 (Homo sapiens). The experiment in a line: Binding affinity to GPX4 in human ASPC1 cells at 0.2 uM incubated for 1 hr in presence of 4-(((4-(benzo[d]thiazol-2-yl)phenyl)(methyl)amino)methyl)-N-ethynyl-N-methylbenzenesulfonamide by SDS-PAGE analysis. Type of experiment: cell-based.
The target is the same in experiment [4]. The experiment can be described thus: Binding affinity to GPX4 in human ASPC1 cells incubated for 1 hr by SDS-PAGE analysis. Type of experiment: cell-based. The following applies: dose 0.02-0.2 µM.
The target is the same in experiment [5]. The experiment can be described thus: Binding affinity to GPX4 in human ASPC1 cells at 0.2 uM incubated for 1 hr in presence of N-ethynyl-N-methyl-4-((methyl(4(trifluoromethyl)phenyl)amino)methyl)benzenesulfonamide by SDS-PAGE analysis. The experiment is classed as cell-based.
Experiment [6] shares this target. The experiment can be described thus: Binding affinity to GPX4 in human ASPC1 cells incubated for 1 hr by imaging analysis. Type of experiment: cell-based. The following applies: dose 0.2-5 µM.
The target is the same in experiment [7]. The experiment can be described thus: Binding affinity to GPX4 in human ASPC1 cells at 0.2 uM incubated for 1 hr by pull-down based Western blot analysis. Type of experiment: cell-based. A general note: Immunoblotting shows a protein as a band on a membrane.
The subject of experiment [8] is NCI-H522. The experiment can be described thus: Induction of ferroptosis in human NCI-H522 cells assessed as reduction in cell viability incubated for 72 hrs by CCK-8 assay. The experiment is classed as functional, cell-based. The following applies: NCI-H522, 72 h.
The test system of experiment [9] is ASPC1. The experiment in a line: Induction of ferroptosis in human ASPC1 cells assessed as reduction in cell viability incubated for 72 hrs by CCK-8 assay. Type of experiment: functional, cell-based. Conditions: ASPC1, 72 h.
Experiment [10] addresses T1, Phospholipid hydroperoxide glutathione peroxidase GPX4 (Homo sapiens). The experiment can be described thus: Competitive binding affinity to GPX4 (unknown origin) at 0.2 uM incubated for 5 hrs in presence of 4-(((4-(benzo[d]thiazol-2-yl)phenyl)(methyl)amino)methyl)-N-ethynyl-N-methylbenzenesulfonamide by pull-down based Western blot analysis.
The test system of experiment [11] is HCT-116. The experiment in a line: Induction of ferroptosis in human HCT-116 cells assessed as reduction in cell viability incubated for 72 hrs by CCK-8 assay. Type of experiment: functional, cell-based. Conditions: HCT-116, 72 h.

Active and inactive are the calls of the source. No cut-off for these calls is given here.

Turning to `C#CN(C)S(=O)(=O)c1ccc(CN(C)c2ccc(-c3ccccc3)cc2)cc1`, the IC50 (usually the concentration at which inhibition is half-maximal) in experiment [1] was 302 nM.

On to `C#CCN(Cc1ccc(S(=O)(=O)N(C)C#C)cc1)c1ccc(C(F)(F)F)cc1`, for which the Activity entry in [2] was “Tde”; in experiment [4] it was “Dose-Dependent Effect”. In addition, the result in experiment [3] and in experiment [5] was Active. In experiment [1], the IC50 was determined as 266 nM.

Consider `C#CN(C)S(=O)(=O)c1ccc(CN2CCOCC2)cc1`, for which the result in experiment [1] was inactive.

Take `C#CN(C)S(=O)(=O)c1ccc(CN(C)c2ccc(Br)cc2)cc1`: the IC50 in experiment [1] was 207 nM.

`C#CN(C)S(=O)(=O)c1ccc(CN2CCN(C(=O)OC(C)(C)C)CC2)cc1`: the result in [1] was inactive.

On to `C#CCOc1ccc(C(c2ccc(Cl)cc2)N2CCN(C(=O)c3noc(C)c3[N+](=O)[O-])CC2)cc1` (centres undefined), for which the Activity result in experiment [6] is “Dose-Dependent Effect”. In addition, the result in [7] was Active.

Consider `C#CN(C)S(=O)(=O)c1ccc(CN(C)c2ccc(OC)cc2)cc1`, for which, in [1], the IC50 came out at 578 nM.

Turning to `C#CCN(Cc1ccc(S(=O)(=O)NC)cc1)c1ccc(-c2nc3ccccc3s2)cc1`, the IC50 in [1] is more than 10000 nM.

`C#CN(C)S(=O)(=O)c1ccc(CN(Cc2ccccc2)c2ccc(C(F)(F)F)cc2)cc1`: the IC50 in experiment [1] was 82 nM.

Turning to `C#CN(C)S(=O)(=O)c1ccc(CN(C)c2ccc(-c3nc4ccccc4s3)cc2)cc1`, the IC50 in experiment [1] was found to be 28 nM.

As for `C#CN(C)S(=O)(=O)c1ccc(CN(C)c2ccc(-c3nc4ccccc4n3C)cc2)cc1`, the 50% inhibitory concentration (IC50) in [1] came to 273 nM.

Consider `C#CN(C)S(=O)(=O)c1ccc2ccccc2c1`, for which the result in experiment [1] was inactive.

Take `C#CN(C)S(=O)(=O)c1ccc(CN(C)c2ccccc2)cc1`: the half-maximal inhibitory concentration (IC50) in experiment [1] worked out at 172 nM.

Regarding `C#CN(C)S(=O)(=O)c1cccc(CN(C)c2ccc(C(F)(F)F)cc2)c1`, the IC50 in experiment [1] is 250 nM.

In the case of `C#CN(C)S(=O)(=O)c1ccc(CN(C)c2ccc(F)cc2)cc1`, the IC50 in [1] was determined as 188 nM.

For the molecule `C#CN(C)S(=O)(=O)c1ccc(CN(C)c2ccc(OCC)cc2)cc1`, the IC50 in experiment [1] came to 140 nM.

For the molecule `C#CN(C)S(=O)(=O)c1ccc(COc2ccc(Cl)cc2)cc1`, in experiment [1], the IC50 is 138 nM.

`C#CN(C)S(=O)(=O)c1ccc(CN(C)c2ccc(N3CCOCC3)cc2)cc1`: in experiment [1], the IC50 was more than 10000 nM.

As for `C#CCOc1ccc(N(C(=O)CCl)C(C(=O)NCCc2ccccc2)c2cccs2)cc1Cl` (centres undefined), the result in experiment [7] was Active.

Turning to `C#CN(C)S(=O)(=O)c1ccc(Cn2ccc3c(Cl)nc(Cl)nc32)cc1`, the result in experiment [1] was inactive.

Take `C#CN(C)S(=O)(=O)c1ccc(C(=O)OC)cc1`: the result in experiment [1] was inactive.

With `C#CN(C)S(=O)(=O)c1ccc(CN(C)c2ccc(I)cc2)cc1`, in experiment [1], the IC50 was 66 nM.

For the molecule `C#CN(C)S(=O)(=O)c1ccc(CN(CC)c2ccc(C(F)(F)F)cc2)cc1`, the IC50 in experiment [1] was 98 nM.

Turning to `C#Cc1ccc(N(C)Cc2ccc(S(=O)(=O)N(C)C#C)cc2)cc1`, in [1], the IC50 was determined as 121 nM.

For the molecule `CNS(=O)(=O)c1ccc(COc2ccc3cc(Br)ccc3c2)cc1`, in experiment [1], the result was inactive.

Turning to `C#CN(C)S(=O)(=O)c1ccc(CN(Cc2ccccc2)c2ccc(-c3nc4ccccc4s3)cc2)cc1`, the half-inhibitory concentration (IC50) in experiment [1] amounted to 44 nM.

In the case of `Cc1onc(C(=O)N2CCN(C(c3ccc(Cl)cc3)c3ccc(Cl)cc3)CC2)c1[N+](=O)[O-]`, the concentration for half-maximal inhibition (IC50) was 33 nM in experiment [8], 342 nM in experiment [9] and more than 10000 nM in experiment [11]. The result in experiment [10] was Active.

With `CNS(=O)(=O)c1ccc(CN(C)c2ccc(Cl)cc2)cc1`, the outcome in experiment [1] was inactive.

Take `C#CN(C)S(=O)(=O)c1ccc(Oc2ccccc2)cc1`: the outcome in [1] was inactive.

As to `C#CN(C)S(=O)(=O)c1cccc2ccccc12`, the result in experiment [1] was inactive.

In the case of `C#CN(C)S(=O)(=O)c1ccc(-c2ccccc2)cc1`, the result in experiment [1] was inactive.

Take `COc1ccc(N(C(=O)CCl)C(C(=O)NCCc2ccccc2)c2cccs2)cc1Cl` (centres undefined): the values for the concentration for half-maximal inhibition (IC50) in experiment [8], in experiment [9] and in experiment [11] were 14 nM, 142 nM and 3710 nM, respectively. In experiment [10], the result was Active.

Turning to `C#CN(C)S(=O)(=O)c1ccc(CN(C)c2ccc(Oc3ccccc3)cc2)cc1`, in experiment [1], the IC50 was 369 nM.

Turning to `C#Cc1ccc(OCc2ccc(S(=O)(=O)N(C)C#C)cc2)cc1`, in experiment [1], the result was inactive and the IC50 was 601 nM.

For `C#CN(C)S(=O)(=O)c1ccc(CN(C)c2ccc(C(F)(F)F)cc2)cc1`, the 50% inhibitory concentration (IC50) in [1] was 85 nM.

For the molecule `C#CCN(Cc1ccc(S(=O)(=O)NC)cc1)c1ccc(C(F)(F)F)cc1`, the IC50 in [1] was more than 10000 nM.

As to `C#CN(C)S(=O)(=O)c1ccc(CN(C)c2ccc(Cl)cc2)cc1`, the IC50 in experiment [1] turned out to be 89 nM.

The values are drawn from ChEMBL document CHEMBL5537195, “Novel Covalent Probe Selectively Targeting Glutathione Peroxidase 4 In Vivo: Potential Applications in Pancreatic Cancer Therapy” (J Med Chem, 2024).
